Results as given in publication PMC2656571 (Journal of medicinal chemistry, 2008).

Tests used:
Type in all cases: cell-based
HIV-1 IIIB = assay: Inhibition of HIV-1 IIIB replication in MT-2 cells; conditions: CC50 (MT-2 cells) / EC50 (p24 production)
MT-2 cells = assay: In vitro cytotoxicity on MT-2 cells; conditions: human
[1] = system: HIV-1-mediated cell-cell fusion; assay: HIV-1-mediated cell-cell fusion; conditions: data not shown
HIV-1 = assay: HIV-1-mediated cytopathic effect; conditions: data not shown

Row | SMILES | SI (selectivity index, CC50/EC50) (HIV-1 IIIB) | CC50 at 4 days (MT-2 cells) [µM] | Inhibition of HIV-1-mediated cell-cell fusion [1] | Inhibition of HIV-1-mediated cytopathic effect (CPE) (HIV-1)
1 | O=C(O)c1cc(-n2cccc2)ccc1O [Compound A2, N-(3-Carboxy-4-hydroxy)phenylpyrrole] | >50.99 | > 493 | – | –
2 | O=C(O)c1ccc(-n2cccc2)cc1 [Compound A6, N-(4-Carboxy)phenylpyrrole] | >7.72 | > 535 | – | –
3 | O=C(O)Cc1ccc(-n2cccc2)cc1 [Compound A7, N-(4-Carboxymethene)phenylpyrrole] | >1.34 | > 498 | – | –
4 | O=C(O)c1ccc(Cn2cccc2)cc1 [Compound A9, N-(4-Carboxy)benzylpyrrole] | >7.78 | > 498 | – | –
5 | O=C(O)Cc1ccc(Cn2cccc2)cc1 [Compound A10, N-(4-Carboxymethene)benzylpyrrole] | – | > 465 | – | –
6 | Cc1ccc(C)n1-c1ccc(O)c(C(=O)O)c1 [Compound A12, N-(3-Carboxy-4-hydroxy)phenyl-2,5-dimethylpyrrole] | – | – | effectively inhibited | effectively inhibited
7 | Cc1ccc(C)n1-c1ccc(Cl)cc1C(=O)O [Compound A18, N-(4-Chloro-2-carboxy)phenyl-2,5-dimethylpyrrole] | >46.73 | > 400 | – | –
8 | Cc1ccc(C)n1Cc1ccc(C(=O)O)cc1 [Compound A19, N-(4-Carboxy)benzyl-2,5-dimethylpyrrole] | 19.20 | 299 | – | –
9 | O=C(O)c1ccc(-c2noc(CCl)n2)cc1 [Compound B6, 3-(4-Carboxy)phenyl-5-chloromethyl-1,2,4-oxadiazole] | > 16 | – | – | –
10 | O=C(O)c1ccc(-c2noc(C(F)(F)F)n2)cc1 [Compound B10, 3-(4-Carboxyphenyl)-5-(trifluoromethyl)-1,2,4-oxadiazole] | > 16 | – | – | –
